From US8436210B2, “Amide compound and bacterial disease control agent for agricultural and horticultural use” (The University of Tokyo, priority 2007, dated 2013)

Tests used:
[1] = test system: Burkholderia glumae; experiment: Test Example 1: toxoflavin (toxin) production by Burkholderia glumae in LB culture; format: cell-based; details: for toxin doses (toxoflavin) produced by bacteria as concentration of compound increased: 0, 20, 40, 60, 80 or 100 μM, shake culturing 20 hours, LB medium, FIG. 1
Protocol: Burkholderia glumae was inoculated into an LB culture medium (produced by BD, Difco LB Broth: containing tryptone (10.0 g), yeast extract (5.0 g), and sodium chloride (10.0 g)), and cultured at 37° C. overnight. The broth thus obtained was subjected to bacterial collection using a centrifuge, and the collected bacteria were washed with an LB culture medium twice using a fresh LB culture medium each time. A fresh LB culture medium was added to the bacteria, and then Compound (1a-3) produced in Production Example 3 was added thereto in such a manner that its final concentration became a predetermined value (i.e., 0, 20, 40, 60, 80 or 100 μM), followed by shake culturing for 20 hours. The amount of toxoflavin produced by the bacteria in the broth was obtained by the following procedure.
Each broth was filtered by a 0.22-μm membrane filter, and 1 mL of the filtrate was isolated. One mL of chloroform was added to the filtrate, followed by extraction. The thus-obtained chloroform layer was concentrated under reduced pressure, and an 80% (V/V) aqueous methanol solution was added to and dissolved in the residue. The absorbance (at 260 nm) of the solution was measured, and the toxin doses were calculated from the calibration curve, which was obtained using a chemically synthesized standard toxin.
The same test was conducted as a comparative test using the compound (comparative compound) shown by the formula below disclosed in Patent Document 1.

[2] = test system: Burkholderia glumae; experiment: Test Example 2: onset of Burkholderia glumae infection on rice sprayed with test liquid; format: in vivo; details: for percentage of flower clusters with score 0 / percentage of flower clusters with score 1 / percentage of flower clusters with score 2 / percentage of flower clusters with score 3 / percentage of flower clusters with score 4 / percentage of flower clusters with score 5: Korean rice (Milyang 23), 7 days; for percentage of flower clusters with score 1: score 1 = 0.1% to 20% onset; for percentage of flower clusters with score 2: score 2 = 20% to 40% onset; for percentage of flower clusters with score 3: score 3 = 40% to 60% onset; for percentage of flower clusters with score 4: score 4 = 60% to 80% onset; for percentage of flower clusters with score 5: score 5 = 80% to 100% onset
Protocol: […] In a separate procedure, Burkholderia glumae were seeded to an LB culture medium and cultured overnight at 37° C., preparing an broth for infection.
Each test liquid (10 mL) was sprayed onto Korean rice (Milyang 23) raised in a hothouse until the flowering stage. The broth for infection was sprayed onto the rice one hour after the application of the test liquid. After cultivation for seven days, the onset of Burkholderia glumae infection on the rice was evaluated.
The evaluation was conducted by picking an ear from each plant, making a total of three ears. In each flower cluster (grain), the percentage of the portion that suffered from the onset of infection (i.e., the portion that turned brown) caused by the toxoflavin produced by Burkholderia glumae was visually observed and scored based on the scale shown below. The percentage of the total flower clusters was obtained and scored to indicate the onset of the infection.
The percentage that suffered from the onset of infection:
Not less than 0.1% and not greater than 20%: 1
Not less than 20% and not greater than 40%: 2
Not less than 40% and not greater than 60%: 3
Not less than 60% and not greater than 80%: 4
In this evaluation, three flower clusters (grains) having the same conditions were prepared, and reproducibility was confirmed by repeating the same evaluation three times. The same evaluation was also conducted as a comparative test except that water was used instead of the test liquid. Further, the same evaluation was conducted to serve as a blank except that water was used instead of both the test liquid and the broth for infection.

[3] = test system: Burkholderia glumae; experiment: Test Example 3: onset of Burkholderia glumae infection on rice sprayed with test liquid; format: in vivo; details: for percentage of flower clusters with score 0: score 0 = less than 0.1% onset; for percentage of flower clusters with score 0 / percentage of flower clusters with score 1 / percentage of flower clusters with score 2 / percentage of flower clusters with score 3 / percentage of flower clusters with score 4 / percentage of flower clusters with score 5: Korean rice (Milyang 23), 7 days, infection broth sprayed 1 h after treatment; for percentage of flower clusters with score 1: score 1 = 0.1% to 20% onset; for percentage of flower clusters with score 2: score 2 = 20% to 40% onset; for percentage of flower clusters with score 3: score 3 = 40% to 60% onset; for percentage of flower clusters with score 4: score 4 = 60% to 80% onset; for percentage of flower clusters with score 5: score 5 = 80% to 100% onset
Protocol: Each test liquid (10 mL) was sprayed onto Korean rice ([…] 23) raised in a hothouse until the flowering stage. The broth for infection was sprayed onto the rice one hour after the application of the test liquid. After cultivation for seven days, the onset of Burkholderia glumae infection on the rice was evaluated in the same manner as in Test Example 2. The same evaluation was conducted as the comparative test in the same manner except that water was used instead of the test liquid. Further, the same evaluation was conducted to serve as a blank using water instead of both the test liquid and the broth for infection.

CCCCCCCC(=O)NC1=CC(=O)CCC1 [Compound (1a-3), N-(3-oxo-cyclohexen-1-yl)octanamide]
toxin doses (toxoflavin) produced by bacteria as concentration of compound increased [1]: remarkably decreased | percentage of flower clusters with score 0 ([2]; 50 μM spray, score 0 = less than 0.1% of portion with onset of infection): 73% | percentage of flower clusters with score 1 ([2]; 50 μM spray): 20% | percentage of flower clusters with score 2 ([2]; 50 μM spray): 6% | percentage of flower clusters with score 3 ([2]; 50 μM spray): 1% | percentage of flower clusters with score 4 ([2]; 50 μM spray): 0% | percentage of flower clusters with score 5 ([2]; 50 μM spray): 0% | percentage of flower clusters with score 0 ([2]; 100 μM spray, score 0 = less than 0.1% onset): 85% | percentage of flower clusters with score 1 ([2]; 100 μM spray): 10% | percentage of flower clusters with score 2 ([2]; 100 μM spray): 3% | percentage of flower clusters with score 3 ([2]; 100 μM spray): 0% | percentage of flower clusters with score 4 ([2]; 100 μM spray): 1% | percentage of flower clusters with score 5 ([2]; 100 μM spray): 1% | percentage of flower clusters with score 0 ([2]; 150 μM spray, score 0 = less than 0.1% onset): 84% | percentage of flower clusters with score 1 ([2]; 150 μM spray): 9% | percentage of flower clusters with score 4 ([2]; 150 μM spray): 1% | percentage of flower clusters with score 5 ([2]; 150 μM spray): 1% | percentage of flower clusters with score 2 [2]: 4% | percentage of flower clusters with score 3 [2]: 1% | onset of Burkholderia glumae on rice ([2]; test liquid sprayed onto rice, then broth for infection, Table 1 and FIG. 2): prevented | percentage of flower clusters with score 0 ([3]; 50 μM spray): 62% | percentage of flower clusters with score 1 ([3]; 50 μM spray): 15% | percentage of flower clusters with score 2 ([3]; 50 μM spray): 19% | percentage of flower clusters with score 3 ([3]; 50 μM spray): 2% | percentage of flower clusters with score 4 ([3]; 50 μM spray): 1% | percentage of flower clusters with score 5 ([3]; 50 μM spray): 1% | percentage of flower clusters with score 0 ([3]; 100 μM spray): 82% | percentage of flower clusters with score 1 ([3]; 100 μM spray): 9% | percentage of flower clusters with score 2 ([3]; 100 μM spray): 7% | percentage of flower clusters with score 3 ([3]; 100 μM spray): 1% | percentage of flower clusters with score 4 ([3]; 100 μM spray): 1% | percentage of flower clusters with score 5 ([3]; 100 μM spray): 0% | percentage of flower clusters with score 0 ([3]; 150 μM spray): 89% | percentage of flower clusters with score 1 ([3]; 150 μM spray): 8% | percentage of flower clusters with score 3 ([3]; 150 μM spray): 1% | percentage of flower clusters with score 2 [3]: 1% | percentage of flower clusters with score 4 [3]: 1% | percentage of flower clusters with score 5 [3]: 0% | onset of Burkholderia glumae on rice ([3]; test liquid sprayed onto rice, then broth for infection, Table 2 and FIG. 3): prevented

CCCCCCCCCC(=O)CC(=O)Nc1ccccc1O [comparative compound]
toxin doses (toxoflavin) produced by bacteria as concentration of compound increased [1]: almost no change | control effect on bacterial infections ([1]; statement in background referring to the Test Example): no control effect
